Reference: PubChem BioAssay AID330 (DTP/NCI, 2004)
Where “and” joins values, the source holds several entries; their conditions need not be identical. Equal entries are not always repeated. Toxic doses and inconclusive results are not listed. The calls were made as follows: active = survival T/C of 150% or more; inactive = T/C below 125% in these data.

System: P388 leukemia ip, CD2F1 mice, survival T/C
Experiment: NCI In Vivo Anticancer Drug Screen. Data for tumor model P388 Leukemia (intraperitoneal) in CD2F1 (CDF1) mice
Settings: endpoint: median survival time, higher = longer survival
Method in brief: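 Mice carrying the transplanted tumor received test compound or vehicle. Survival was recorded in each group, and the value is the treated-group measurement divided by that of the vehicle-treated control group.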

[1] = dose: 50.0 mg/kg/injection, schedule: Q01DX009 (ip), vehicle: saline with Tween-80
[2] = dose: 100.0 mg/kg/injection, schedule: Q01DX009 (ip), vehicle: saline with Tween-80
[3] = dose: 200.0 mg/kg/injection, schedule: Q01DX009 (ip), vehicle: saline with Tween-80
[4] = dose: 400.0 mg/kg/injection, schedule: Q01DX009 (ip), vehicle: saline with Tween-80
[5] = dose: 60.0 mg/kg/injection, schedule: Q01DX005 (ip), vehicle: saline with Tween-80
[6] = dose: 120.0 mg/kg/injection, schedule: Q01DX005 (ip), vehicle: saline with Tween-80
[7] = dose: 240.0 mg/kg/injection, schedule: Q01DX005 (ip), vehicle: saline with Tween-80
[8] = dose: 100.0 mg/kg/injection, schedule: Q04DX003 (ip), vehicle: saline with Tween-80
[9] = dose: 200.0 mg/kg/injection, schedule: Q04DX003 (ip), vehicle: saline with Tween-80
[10] = dose: 400.0 mg/kg/injection, schedule: Q04DX003 (ip), vehicle: saline with Tween-80
[11] = dose: 12.5 mg/kg/injection, schedule: Q01DX005 (ip), vehicle: Klucel (hydroxypropylcellulose) (HPC)
[12] = dose: 25.0 mg/kg/injection, schedule: Q01DX005 (ip), vehicle: Klucel (hydroxypropylcellulose) (HPC)
[13] = dose: 100.0 mg/kg/injection, schedule: Q04DX003 (ip), vehicle: Klucel (hydroxypropylcellulose) (HPC)
[14] = dose: 200.0 mg/kg/injection, schedule: Q04DX003 (ip), vehicle: Klucel (hydroxypropylcellulose) (HPC)
[15] = dose: 100.0 mg/kg/injection, schedule: Q01DX001 (ip), vehicle: saline with Tween-80
[16] = dose: 200.0 mg/kg/injection, schedule: Q01DX001 (ip), vehicle: saline with Tween-80
[17] = dose: 50.0 mg/kg/injection, schedule: Q01DX005 (ip), vehicle: Klucel (hydroxypropylcellulose) (HPC)
[18] = dose: 200.0 mg/kg/injection, schedule: Q01DX005 (ip), vehicle: Klucel (hydroxypropylcellulose) (HPC)
[19] = dose: 50.0 mg/kg/injection, schedule: Q01DX005 (ip), vehicle: saline with Tween-80
[20] = dose: 100.0 mg/kg/injection, schedule: Q01DX005 (ip), vehicle: saline with Tween-80
[21] = dose: 200.0 mg/kg/injection, schedule: Q01DX005 (ip), vehicle: saline with Tween-80
[22] = dose: 100.0 mg/kg/injection, schedule: Q01DX009 (ip), vehicle: Klucel (hydroxypropylcellulose) (HPC)

Measured: T/C

CCOC(=O)c1ccc(NC(=O)OCc2ccccc2)cc1
inactive: [1] 91 % of control | [2] 86 % of control | [3] 96 % of control | [4] 107 % of control

CC(=O)CCS(=O)Cc1ccccc1 (stereo unspecified)
inactive: [5] 103 % of control | [6] 98 % of control | [7] 111 % of control

OCCN1CCOCC1
inactive: [8] 95 % of control | [9] 95 % of control | [10] 95 % of control

Cc1ccc(NC(=O)N2c3ccccc3SC23CCCCC3)c(C)c1
inactive: [1] 102 % of control | [2] 105 % of control | [3] 103 % of control

O=S(=O)(CCNCCCCC1CCCCC1)SCCNCCCCC1CCCCC1
inactive: dose: 6.25 mg/kg/injection, schedule: Q01DX005 (ip), vehicle: Klucel (hydroxypropylcellulose) (HPC) 100 % of control | [11] 101 % of control | [12] 95 % of control

CC12CC3CC(C)(C1)CC(SC(=N)N)(C3)C2
inactive: dose: 7.5 mg/kg/injection, schedule: Q01DX005 (ip), vehicle: saline with Tween-80 105 % of control | dose: 15.0 mg/kg/injection, schedule: Q01DX005 (ip), vehicle: saline with Tween-80 104 % of control | dose: 30.0 mg/kg/injection, schedule: Q01DX005 (ip), vehicle: saline with Tween-80 106 % of control

Cc1ccnc(NS(=O)(=O)c2ccc(Nc3c4ccccc4nc4cc(Cl)ccc34)cc2)n1
inactive: [13] 104 % of control and 114 % of control | [14] 106 % of control and 118 % of control | dose: 400.0 mg/kg/injection, schedule: Q04DX003 (ip), vehicle: Klucel (hydroxypropylcellulose) (HPC) 124 % of control

COc1cccc2c1C(=O)c1c(O)c3c(c(O)c1C2=O)C/C(=N/O)CC3OC1CC(NC(=O)C(F)(F)F)C(O)C(C)O1 (stereo unspecified)
inactive: dose: 1.56 mg/kg/injection, schedule: Q01DX009 (ip), vehicle: other 106 % of control | dose: 3.13 mg/kg/injection, schedule: Q01DX009 (ip), vehicle: other 88 % of control | dose: 6.25 mg/kg/injection, schedule: Q01DX009 (ip), vehicle: other 92 % of control | dose: 12.5 mg/kg/injection, schedule: Q01DX009 (ip), vehicle: other 110 % of control

O=C1Cc2c(Cl)cccc2C(=S)N1
inactive: dose: 50.0 mg/kg/injection, schedule: Q01DX001 (ip), vehicle: saline with Tween-80 100 % of control | [15] 100 % of control | [16] 100 % of control

COc1cc(C(C)=O)cc([N+](=O)[O-])c1O
inactive: dose: 50.0 mg/kg/injection, schedule: Q04DX003 (ip), vehicle: saline with Tween-80 100 % of control | [8] 100 % of control | [9] 100 % of control

CC1=NN(C(=O)c2ccncc2)C(=O)C1N=Nc1ccc2ccccc2c1 (stereo unspecified)
inactive: [1] 101 % of control | [2] 102 % of control

CC(=C/c1cc(C)cc(=O)o1)/C=C/c1ccc(C)c(C)c1C
inactive: [11] 97 % of control | [12] 97 % of control | [17] 99 % of control and 88 % of control and 90 % of control | [18] 86 % of control and 88 % of control

CCCn1cnc2c(=S)nc[nH]c21
inactive: dose: 25.0 mg/kg/injection, schedule: Q01DX009 (ip), vehicle: saline with Tween-80 86 % of control | [1] 90 % of control | [2] 109 % of control

COC(=O)C1(c2ccccc2)OP2(N(C)C)(OC1(C(=O)OC)c1ccccc1)N(C)CCN2C (stereo unspecified)
inactive: dose: 50.0 mg/kg/injection, schedule: Q01DX005 (ip), vehicle: saline + Tween-80 + alcohol 104 % of control | [19] 102 % of control | dose: 100.0 mg/kg/injection, schedule: Q01DX005 (ip), vehicle: saline + Tween-80 + alcohol 100 % of control | [20] 102 % of control | dose: 200.0 mg/kg/injection, schedule: Q01DX005 (ip), vehicle: saline + Tween-80 + alcohol 100 % of control | [21] 105 % of control

NNC(=O)C(=O)N/N=C(/CC1(O)C(=O)Nc2ccccc21)c1ccc([N+](=O)[O-])cc1 (stereo unspecified)
inactive: [19] 103 % of control | [20] 94 % of control | [21] 90 % of control

O=c1c2cc3ccccc3cc2c(=O)n2n1CC=CC2
inactive: dose: 50.0 mg/kg/injection, schedule: Q01DX009 (ip), vehicle: Klucel (hydroxypropylcellulose) (HPC) 97 % of control | [22] 90 % of control

O=C(N/N=C/c1ccccc1F)c1ccncc1
inactive: [1] 98 % of control | [2] 97 % of control | [3] 104 % of control

O=C(O)C1C(C(=O)O)C1c1ncnc2nc[nH]c12 (stereo unspecified)
inactive: dose: 25.0 mg/kg/injection, schedule: Q04DX003 (ip), vehicle: saline 99 % of control and 100 % of control | dose: 50.0 mg/kg/injection, schedule: Q04DX003 (ip), vehicle: saline 100 % of control and 101 % of control | dose: 100.0 mg/kg/injection, schedule: Q04DX003 (ip), vehicle: saline 98 % of control and 103 % of control and 100 % of control | dose: 200.0 mg/kg/injection, schedule: Q04DX003 (ip), vehicle: saline 103 % of control and 104 % of control | dose: 400.0 mg/kg/injection, schedule: Q04DX003 (ip), vehicle: saline 100 % of control and 99 % of control

Cc1cc2c(c(C#N)c1C)NC(=O)CN=C2c1ccccc1F
inactive: [5] 96 % of control | [6] 98 % of control | [7] 95 % of control

N#CC1OC1c1ccccn1 (stereo unspecified)
inactive: dose: 6.25 mg/kg/injection, schedule: Q01DX005 (ip), vehicle: saline + Tween-80 + alcohol 98 % of control | dose: 12.5 mg/kg/injection, schedule: Q01DX005 (ip), vehicle: saline + Tween-80 + alcohol 98 % of control

CC(=O)N1C=CN(C(C)=O)C1c1c[nH]c2ccccc12
inactive: [17] 98 % of control | dose: 100.0 mg/kg/injection, schedule: Q01DX005 (ip), vehicle: Klucel (hydroxypropylcellulose) (HPC) 104 % of control | [18] 99 % of control

CCCCCCCC(=O)N/N=C/c1ccc(O)c(OCC)c1
inactive: [19] 95 % of control | [20] 90 % of control

O=C1C2CCCN2C(=O)N1c1ccccc1 (stereo unspecified)
inactive: dose: 60.0 mg/kg/injection, schedule: Q01DX005 (ip), vehicle: Klucel (hydroxypropylcellulose) (HPC) 105 % of control | dose: 120.0 mg/kg/injection, schedule: Q01DX005 (ip), vehicle: Klucel (hydroxypropylcellulose) (HPC) 97 % of control | dose: 240.0 mg/kg/injection, schedule: Q01DX005 (ip), vehicle: Klucel (hydroxypropylcellulose) (HPC) 96 % of control

CC(=O)ON1C(=O)C2C3C=CC(O3)C2C1=O (stereo unspecified)
inactive: dose: 3.13 mg/kg/injection, schedule: Q01DX009 (ip), vehicle: water 103 % of control | dose: 6.25 mg/kg/injection, schedule: Q01DX009 (ip), vehicle: water 112 % of control | dose: 12.5 mg/kg/injection, schedule: Q01DX009 (ip), vehicle: water 100 % of control | dose: 25.0 mg/kg/injection, schedule: Q01DX009 (ip), vehicle: water 102 % of control | dose: 50.0 mg/kg/injection, schedule: Q01DX009 (ip), vehicle: water 93 % of control

CC[C@H](C)C(NC(=O)[C@H]1N=C(c2csc(C(O)Cc3ccccc3)n2)OC1C)C(=O)OC (stereo partly specified)
inactive: [5] 99 % of control | [6] 98 % of control | [7] 100 % of control

O=C1C(=Nc2ccccc2)Cc2ccccc21
inactive: [8] 100 % of control | [9] 96 % of control | [10] 100 % of control

O=C1/C(=C/c2ccccc2[N+](=O)[O-])Cc2ccccc21
inactive: [1] 103 % of control | [2] 94 % of control | [3] 103 % of control | [4] 97 % of control

CC(=O)Nc1cccc(N=Cc2ccc[nH]2)c1
inactive: [13] 99 % of control | [14] 100 % of control

CC(=O)N(c1ccccc1)[Si](C)(C)C
inactive: [15] 107 % of control | [16] 106 % of control | dose: 400.0 mg/kg/injection, schedule: Q01DX001 (ip), vehicle: saline with Tween-80 100 % of control

ClB1NB(Cl)NB(Cl)N1
inactive: [22] 108 % of control and 93 % of control | dose: 200.0 mg/kg/injection, schedule: Q01DX009 (ip), vehicle: Klucel (hydroxypropylcellulose) (HPC) 108 % of control and 86 % of control | dose: 400.0 mg/kg/injection, schedule: Q01DX009 (ip), vehicle: Klucel (hydroxypropylcellulose) (HPC) 109 % of control and 95 % of control
